Measured values: paper PMC3339042 (2012)

What was measured:
[1] = molecular target: T1, ubiquitin E1 (UBA1) (Homo sapiens, UniProt P22314); test: […]-AMP:[α-32P]-ATP exchange TLC assay; type: biochemical
T1 sequence (P22314 2-1058): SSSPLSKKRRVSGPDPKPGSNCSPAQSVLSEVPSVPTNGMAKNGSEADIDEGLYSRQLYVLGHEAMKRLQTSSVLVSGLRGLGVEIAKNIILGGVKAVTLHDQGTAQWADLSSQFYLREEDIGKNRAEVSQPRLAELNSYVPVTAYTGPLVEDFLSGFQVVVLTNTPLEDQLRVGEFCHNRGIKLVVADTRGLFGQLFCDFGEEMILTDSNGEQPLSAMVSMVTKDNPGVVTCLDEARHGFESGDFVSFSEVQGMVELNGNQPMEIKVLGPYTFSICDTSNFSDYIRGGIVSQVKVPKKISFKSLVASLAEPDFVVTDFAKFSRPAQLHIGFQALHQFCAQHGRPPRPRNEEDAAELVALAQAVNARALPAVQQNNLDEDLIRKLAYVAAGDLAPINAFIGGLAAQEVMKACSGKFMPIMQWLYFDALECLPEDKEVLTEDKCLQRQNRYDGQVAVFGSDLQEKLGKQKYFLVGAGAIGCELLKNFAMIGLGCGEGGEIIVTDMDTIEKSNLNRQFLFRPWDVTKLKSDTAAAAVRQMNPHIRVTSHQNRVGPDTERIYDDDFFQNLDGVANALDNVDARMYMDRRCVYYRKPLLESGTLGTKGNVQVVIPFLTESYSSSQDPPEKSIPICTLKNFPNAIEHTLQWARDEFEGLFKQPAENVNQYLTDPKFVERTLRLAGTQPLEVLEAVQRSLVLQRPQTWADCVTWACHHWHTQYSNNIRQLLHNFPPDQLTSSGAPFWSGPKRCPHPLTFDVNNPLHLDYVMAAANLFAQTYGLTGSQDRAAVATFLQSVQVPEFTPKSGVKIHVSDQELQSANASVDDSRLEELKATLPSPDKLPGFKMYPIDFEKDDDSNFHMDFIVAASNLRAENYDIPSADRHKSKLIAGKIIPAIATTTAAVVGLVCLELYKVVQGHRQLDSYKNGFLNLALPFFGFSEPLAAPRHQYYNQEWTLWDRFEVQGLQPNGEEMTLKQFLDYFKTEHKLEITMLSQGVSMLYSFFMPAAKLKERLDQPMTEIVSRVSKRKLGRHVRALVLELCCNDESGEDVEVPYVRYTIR

[2] = molecular target: T1, ubiquitin E1 (UBA1); test: E1-ubiquitin thioester gel assay with fluorescein-ubiquitin without E2; type: biochemical

An IC50 [1] of 6.4 µM was found for `CCOC(=O)c1ccc(N2NC(=O)C(=Cc3ccc([N+](=O)[O-])o3)C2=O)cc1` [PYR-41] in this work.

An IC50 [2] of roughly 9 µM was found for `CCCCCCCCCCNCCSSCc1ccc(Cl)cc1` [compound 1, NSC624206] in this work.
